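Interpolation was linear, between the two tested concentrations surrounding the appropriate level; five concentrations were tested over 48 hours in 96-well plates. Here, GI50 denotes the concentration required for 50% inhibition of growth.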 Active and inactive are the calls of the source. Cut-off read from the data, not from the text of the source: active = GI50 up to about 1.1 µM and inactive = higher.
Tests used:
Experiment in all cases: growth of human tumour cells (NCI), 48 h
[1] = test system: SK-OV-3
[2] = test system: A549
[3] = test system: MDA-MB-435
[4] = test system: NCI-H23
[5] = test system: SF-539
[6] = test system: UACC-257
[7] = test system: SNB-19
[8] = test system: BT-549
[9] = test system: SR
[10] = test system: SF-268
[11] = test system: ACHN
[12] = test system: OVCAR-3
[13] = test system: RXF 393
[14] = test system: SK-MEL-5
[15] = test system: M14
[16] = test system: K562
[17] = test system: CAKI-1
[18] = test system: UO-31
[19] = test system: SK-MEL-2
[20] = test system: A498
[21] = test system: TK-10
[22] = test system: 786-0
[23] = test system: MDA-N
[24] = test system: PC-3
[25] = test system: CCRF-CEM
[26] = test system: SF-295
[27] = test system: IGROV-1
[28] = test system: SNB-75
[29] = test system: HT-29
[30] = test system: HOP-92
[31] = test system: LOX IMVI
[32] = test system: MCF7
[33] = test system: U-251
[34] = test system: UACC-62
[35] = test system: OVCAR-4
[36] = test system: MOLT-4
[37] = test system: HOP-62
[38] = test system: NCI-H522
[39] = test system: OVCAR-8
[40] = test system: HCC 2998
[41] = test system: HCT-116
[42] = test system: SW-620
[43] = test system: NCI-H226
[44] = test system: DU-145
[45] = test system: NCI/ADR-RES
[46] = test system: COLO 205
[47] = test system: NCI-H460
[48] = test system: EKVX
[49] = test system: MDA-MB-231
[50] = test system: HL-60
[51] = test system: KM12
[52] = test system: OVCAR-5
[53] = test system: SN12C
[54] = test system: HCT-15
[55] = test system: SK-MEL-28
[56] = test system: T47D
[57] = test system: RPMI-8226

CN(C)C1(c2cc3ccccc3s2)CCCCC1 was tested, and the GI50 [1] was 39.5 µM (inactive), the GI50 [2] was 51.2 µM (inactive) and the GI50 [3] was 35.7 µM (inactive). For the same molecule, the GI50 [4] was 49.8 µM (inactive), the GI50 [5] was 50.1 µM (inactive) and the GI50 [6] was 28.1 µM (inactive). The GI50 [7] was 49 µM (inactive), the GI50 [8] was 64.9 µM (inactive) and the GI50 [9] was 18 µM (inactive). The GI50 [10] was 18.8 µM (inactive), the GI50 [11] was 51.2 µM (inactive) and the GI50 [12] was 48.6 µM (inactive). For the same molecule, the GI50 [13] was 25.5 µM (inactive), the GI50 [14] was 17.4 µM (inactive) and the GI50 [15] was 17.5 µM (inactive). For the same molecule, the GI50 [16] was 18 µM (inactive), the GI50 [17] was 61.5 µM (inactive) and the GI50 [18] was 30.9 µM (inactive). For the same molecule, the GI50 [19] was 24.3 µM (inactive), the GI50 [20] was 32.8 µM (inactive) and the GI50 [21] was 47.2 µM (inactive). The GI50 [22] was 22.2 µM (inactive), the GI50 [23] was 32.2 µM (inactive) and the GI50 [24] was 28.8 µM (inactive). For the same molecule, the GI50 [25] was < 0.01 µM (active), the GI50 [26] was 26.6 µM (inactive) and the GI50 [27] was 36.1 µM (inactive). For the same molecule, the GI50 [28] was 32.6 µM (inactive), the GI50 [29] was 33 µM (inactive) and the GI50 [30] was 1.79 µM (inactive). The GI50 [31] was 22.5 µM (inactive), the GI50 [32] was 48.6 µM (inactive) and the GI50 [33] was 43.6 µM (inactive). The GI50 [34] was 20.5 µM (inactive), the GI50 [35] was 47.2 µM (inactive) and the GI50 [36] was 19.2 µM (inactive). The GI50 [37] was 58.1 µM (inactive), the GI50 [38] was 16.7 µM (inactive) and the GI50 [39] was 51.3 µM (inactive). The GI50 [40] was 22.9 µM (inactive), the GI50 [41] was 33.9 µM (inactive) and the GI50 [42] was 0.125 µM (active). For the same molecule, the GI50 [43] was 44.9 µM (inactive), the GI50 [44] was 54.8 µM (inactive) and the GI50 [45] was 44.1 µM (inactive). The GI50 [46] was 26.4 µM (inactive), the GI50 [47] was 29.2 µM (inactive) and the GI50 [48] was > 100 µM (inactive). For the same molecule, the GI50 [49] was 65.6 µM (inactive), the GI50 [50] was < 0.01 µM (active) and the GI50 [51] was 36.5 µM (inactive). For the same molecule, the GI50 [52] was 22.5 µM (inactive), the GI50 [53] was 53.2 µM (inactive) and the GI50 [54] was 37.4 µM.
With COc1cc(C2c3cccc4cccc(c34)C3CCC(=O)N32)cc(OC)c1O (stereo not drawn) the GI50 [1] was > 50 µM (inactive), the GI50 [2] was 42.7 µM (inactive) and the GI50 [3] was > 50 µM (inactive). For the same molecule, the GI50 [4] was > 50 µM (inactive), the GI50 [5] was > 50 µM (inactive) and the GI50 [6] was > 50 µM (inactive). For the same molecule, the GI50 [7] was > 50 µM (inactive), the GI50 [8] was > 50 µM (inactive) and the GI50 [9] was > 50 µM (inactive). The GI50 [11] was > 50 µM (inactive), the GI50 [12] was > 50 µM (inactive) and the GI50 [13] was > 50 µM (inactive). For the same molecule, the GI50 [55] was > 50 µM (inactive), the GI50 [15] was > 50 µM (inactive) and the GI50 [16] was > 50 µM (inactive). The GI50 [18] was > 50 µM (inactive), the GI50 [19] was > 50 µM (inactive) and the GI50 [20] was > 50 µM (inactive). For the same molecule, the GI50 [22] was > 50 µM (inactive), the GI50 [23] was > 50 µM (inactive) and the GI50 [24] was > 50 µM (inactive). The GI50 [25] was > 50 µM (inactive), the GI50 [26] was > 50 µM (inactive) and the GI50 [27] was > 50 µM (inactive). The GI50 [28] was > 50 µM (inactive), the GI50 [29] was > 50 µM (inactive) and the GI50 [30] was > 50 µM (inactive). The GI50 [32] was > 50 µM (inactive), the GI50 [33] was > 50 µM (inactive) and the GI50 [34] was > 50 µM (inactive). The GI50 [35] was > 50 µM (inactive), the GI50 [36] was > 50 µM (inactive) and the GI50 [37] was > 50 µM (inactive). For the same molecule, the GI50 [56] was > 50 µM (inactive), the GI50 [39] was > 50 µM (inactive) and the GI50 [57] was > 50 µM (inactive). For the same molecule, the GI50 [41] was > 50 µM (inactive), the GI50 [42] was > 50 µM (inactive) and the GI50 [43] was > 50 µM (inactive). For the same molecule, the GI50 [44] was > 50 µM (inactive), the GI50 [45] was > 50 µM (inactive) and the GI50 [46] was > 50 µM (inactive). For the same molecule, the GI50 [47] was > 50 µM (inactive), the GI50 [48] was > 50 µM (inactive) and the GI50 [50] was > 50 µM (inactive). The GI50 [51] was > 50 µM (inactive), the GI50 [52] was > 50 µM (inactive) and the GI50 [53] was > 50 µM (inactive). It also gave a GI50 [54] of over 50 µM.
